In patent publication US20250188041A1, “NEW COMPOUNDS AND TREATMENT OF RENAL CELL CARCINOMA” (Trustlife Global Inc., priority 2022, published 2025):
“Also recorded” adds a separate entry of the source.

Tests used:
Type in all cases: cell-based, Human
Caki-1 cells [1] = test: MTT cell viability assay of Caki-1 treated with TG-101209 and its alternatives; settings: for cell viability (MTT assay) / Ranking, Cell viability (%): 1 day; for IC50: Homo sapiens, FIG. 43, assay not named, presumably Caki-1 cell viability; for Ranking, Cell viability (%): top five target drugs, MTT assay, 10 μM, rank 1 = greatest reduction
Protocol: (§1) Cell culture 2: Caki-1 was purchased from CLS Cell Lines Service (Germany). The cells were maintained in McCoy's SA (modified) medium (16600082, Thermo Fisher Scientific, USA) and supplemented with 10% fetal bovine serum (FBS, F7524, Sigma-Aldrich), 1% Penicillin/Streptomycin (P4333, Sigma-Aldrich).
The cytotoxic effects of the TG-101209 and its alternatives on the Caki-1 cells were tested by MTT (Thiazolyl Blue Tetrazolium Bromide) method. 1.5×10^4 cells were seeded per well in a 96-well plate in 100 μL growth media. […] After the incubation period, 5 mg/ml MTT (M2128, Sigma-Aldrich) solution in PBS (10 μL) was added to each well. After 1 hour, the MTT solution and all media were removed from the wells. 100 μl of DMSO was added and mixed to dissolve the formazan crystals. Cell viability was analysed by measuring the absorbance of the dissolved formazan at a wavelength of 570 nm with a microplate reader (Hidex Sense Beta Plus).

Caki-1 cells [2] = test: LDH cytotoxicity assay of Caki-1; settings: 1 day; for cytotoxicity (LDH assay): Caki-1, 10 μM; for Ranking, Cytotoxicity (%): top five target drugs, LDH assay, 10 μM, rank 1 = highest cytotoxicity
Protocol: as §1
Lactate dehydrogenase (LDH) assay was performed with LDH Assay Kit (ab65393). 1.5×10^4 cells per well (from cell culture 2) were seeded in a 96-well plate and drugs were treated at 10 μM for 1 day with 200 μl media. 20 μl of media was analysed with LDH Assay Kit as per manufacturer's instruction.

BUB1B = test: Western blot, BUB1B expression in Caki-1 treated with TG-101209 alternatives; settings: Caki-1, 5 μM of target drug, 1 day (FIG. 41; method says 2 days)
Protocol: as §1
The target drugs developed as alternatives to TG-101209, were dissolved in 0.1% DMSO (41639, Sigma-Aldrich). Caki-1 cells from cell culture 2 were seeded in a 6-well plate at 3×10^5 cells per well. […]
The cells were washed with PBS solution and then lysed with CelLytic M (C2978, Sigma-Aldrich) lysis buffer containing protease inhibitors (11836170001, Roche). The cell lysates were centrifuged at 12 000 rpm for 10 min and supernatants were collected. Protein Assay Dye Reagent (5000006, Bio-Rad) was used for the determination of protein concentration. The absorbance of the proteins was measured spectrophotometrically at 595 nm by a microplate reader (Hidex Sense Beta Plus). Protein electrophoresis was performed using Mini-PROTEAN® TGX™ Precast Gels (4561086, Bio-Rad) and then the separated proteins were transferred to a Trans-Blot Turbo Mini 0.2 um PVDF Transfer Packs membrane (1704158, Bio-Rad) by using Trans-Blot® Turbo™ Transfer System (Bio-Rad). The membrane was blocked with 5% skim milk for 30 min at 4° C. with gentle rocking. After blocking, the membrane was treated with primary antibodies: Anti-BUB1B (HPA008419, Human Protein Atlas, Sweden) and Anti-Beta actin (ab8227, Abcam) as a loading control overnight at 4° C. on a rocking platform. After the treatment of primary antibodies, the membrane was washed three times with TBS-T buffer (A09-7500-100, Medicago). Then, Goat anti-Rabbit IgG-HRP (ab205718, Abcam) was treated as the secondary antibody for 30 min at 4° C. with gentle rocking.

| SMILES | cell viability (MTT assay) (Caki-1 cells [1]; Caki-1, 5 μM) | cytotoxicity (LDH assay) (Caki-1 cells [2]) | Ranking, Cytotoxicity (%) (Caki-1 cells [2]) | expression levels of BUB1B (BUB1B) | IC50 (Caki-1 cells [1]) [nM] | cell viability (MTT assay) (Caki-1 cells [1]; Caki-1, 10 μM) | cell viability (MTT assay) (Caki-1 cells [1]; Caki-1, 10 μM, listed as MS) | Ranking, Cell viability (%) (Caki-1 cells [1]) |
| --- | --- | --- | --- | --- | --- | --- | --- | --- |
| Cc1cnc(Nc2ccc(C(=O)Nc3cccc(Br)c3)cc2)nc1Nc1cccc(S(=O)(=O)NC(C)(C)C)c1 [M101B, N-(3-bromophenyl)-4-((4-((3-(N-(tert-butyl)sulfamoyl)phenyl)amino)-5-methylpyrimidin-2-yl)amino)benzamide] | greatest | exhibited cytotoxicity | 3 |  |  |  |  |  |
| Cc1cnc(Nc2ccc(C(=O)Nc3cccc(S(=O)(=O)N4CCOCC4)c3)cc2)nc1Nc1cccc(S(=O)(=O)NC(C)(C)C)c1 [M101F, 4-((4-((3-(N-(tert-butyl)sulfamoyl)phenyl)amino)-5-methylpyrimidin-2-yl)amino)-N-(3-(morpholinosulfonyl)phenyl)benzamide] | greatest | exhibited cytotoxicity |  |  |  |  |  |  |
| Cc1cn(-c2cc(Nc3ncc(C)c(Nc4cccc(S(=O)(=O)NC(C)(C)C)c4)n3)cc(C(F)(F)F)c2)cn1 [M64, N-(tert-butyl)-3-((5-methyl-2-((3-(4-methyl-1H-imidazol-1-yl)-5-(trifluoromethyl)phenyl)amino)pyrimidin-4-yl)amino)benzenesulfonamide] |  |  |  | significantly lower the expression levels of BUB1B | > 3000 |  |  |  |
| Cc1cnc(Nc2ccc(C(=O)Nc3ccc(OCCCN4CCOCC4)cc3)cc2)nc1Nc1cccc(S(=O)(=O)NC(C)(C)C)c1 [M101G, 4-((4-((3-(N-(tert-butyl)sulfamoyl)phenyl)amino)-5-methylpyrimidin-2-yl)amino)-N-(4-(3-morpholinopropoxy)phenyl)benzamide] | greatest |  |  |  |  |  |  |  |
| Cc1cnc(Nc2ccc(N3CCN(C)CC3)cc2)nc1Nc1cccc(S(=O)(=O)NC2CCC2)c1 [M5, N-cyclobutyl-3-((5-methyl-2-((4-(4-methylpiperazin-1-yl)phenyl)amino)pyrimidin-4-yl)amino)benzenesulfonamide] | greatest | exhibited cytotoxicity; also recorded: highest cytotoxicity; also recorded: greatest cytotoxicity | 2 | significantly lower the expression levels of BUB1B | ~3000 | greatest reduction of cell viability; also recorded: greatest reduction in cell viability | most profound effect on the cell viability | 1 |
| COc1cc(NC(=O)c2ccc(Nc3ncc(C)c(Nc4cccc(S(=O)(=O)NC(C)(C)C)c4)n3)cc2)cc(OC)c1 [M101A, 4-((4-((3-(N-(tert-butyl)sulfamoyl)phenyl)amino)-5-methylpyrimidin-2-yl)amino)-N-(3,5-dimethoxyphenyl)benzamide] | greatest | exhibited cytotoxicity | 5 |  |  | most profound effect on the cell viability |  | 4 |
| COc1cc(Nc2ncc(C)c(Nc3cccc(S(=O)(=O)NC(C)(C)C)c3)n2)cc(OC)c1 [M79, N-(tert-butyl)-3-((2-((3,5-dimethoxyphenyl)amino)-5-methylpyrimidin-4-yl)amino)benzenesulfonamide] |  |  |  | significantly lower the expression levels of BUB1B | ~3000 |  |  |  |
| Cc1cnc(Nc2ccc(N3CCN(C)CC3)cc2)nc1Nc1cccc(S(=O)(=O)N2CCOCC2)c1 [M7, 5-methyl-N2-(4-(4-methylpiperazin-1-yl)phenyl)-N4-(3-(morpholinosulfonyl)phenyl)pyrimidine-2,4-diamine] |  |  |  | significantly lower the expression levels of BUB1B | > 3000 |  |  |  |
| Cc1cnc(Nc2ccc(C(=O)Nc3cccc(S(=O)(=O)NC(C)(C)C)c3)cc2)nc1Nc1cccc(S(=O)(=O)NC(C)(C)C)c1 [M101D, N-(3-(N-(tert-butyl)sulfamoyl)phenyl)-4-((4-((3-(N-(tert-butyl)sulfamoyl)phenyl)amino)-5-methylpyrimidin-2-yl)amino)benzamide] | greatest | exhibited cytotoxicity; also recorded: highest cytotoxicity; also recorded: greatest cytotoxicity | 1 |  |  | most profound effect on the cell viability; also recorded: greatest reduction of cell viability; also recorded: greatest reduction in cell viability |  | 2 |
| Cc1ccc(Nc2ncc(C)c(Nc3cccc(S(=O)(=O)NC(C)(C)C)c3)n2)cc1S(N)(=O)=O [M66, N-(tert-butyl)-3-((5-methyl-2-((4-methyl-3-sulfamoylphenyl)amino)pyrimidin-4-yl)amino)benzenesulfonamide] | greatest | exhibited cytotoxicity | 4 | significantly lower the expression levels of BUB1B |  | most profound effect on the cell viability |  | 3 |
| Cc1cnc(Nc2ccc(OCCCN3CCOCC3)cc2)nc1Nc1cccc(S(=O)(=O)NC(C)(C)C)c1 [M103, N-(tert-butyl)-3-((5-methyl-2-((4-(3-morpholinopropoxy)phenyl)amino)pyrimidin-4-yl)amino)benzenesulfonamide] |  |  |  |  | ~3000 |  |  |  |
| Cc1cnc(Nc2ccc(C(=O)Nc3ccc4ncccc4c3)cc2)nc1Nc1cccc(S(=O)(=O)NC(C)(C)C)c1 [M101H, 4-((4-((3-(N-(tert-butyl)sulfamoyl)phenyl)amino)-5-methylpyrimidin-2-yl)amino)-N-(quinolin-6-yl)benzamide] | greatest |  |  |  |  |  |  |  |
| Cc1cnc(Nc2ccc(N3CCN(C)CC3)cc2)nc1Nc1cccc(S(=O)(=O)Nc2ccccc2)c1 [M3, 3-((5-methyl-2-((4-(4-methylpiperazin-1-yl)phenyl)amino)pyrimidin-4-yl)amino)-N-phenylbenzenesulfonamide] |  |  |  | significantly lower the expression levels of BUB1B | ~3000 |  |  |  |
